Measurements: patent publication US7041702B1, “Pharmaceutically active compounds and methods of use” (Scion Pharmaceuticals, Inc., priority 1997, dated 2006)

Key:
[1] = tested on: mouse; settings: recognized model for evaluation of neuroprotective drugs; cited from earlier work
[2] = tested on: in vivo models of stroke; settings: variety of in vivo models of stroke; cited from earlier work
[3] = in vivo; cited from earlier work
[4] = tested on: DBA/2 mice; assay: In vivo anticonvulsant activity in the DBA/2 mouse model (mouse audiogenic assay); settings: vs vehicle controls, HCl salt form
Method: As discussed above, preferred compounds of the invention in a standard anticonvulsant in vivo audiogenic test, such as the audiogenic mouse assay of Example 11 which follows, where DBA/2 mice about 20–23 days old are injected intraperitoneally with a test compound 30 minutes prior to being placed in a bell jar with exposure to auditory stimulus of 12 KHz sine wave at 110–120 db. References herein in vivo “audiogenic assay” are intended to refer to that protocol. […] As discussed above, activity in the audiogenic assay has been recognized as indicative that a test compound has neuroprotective properties. See, e.g., M. Tricklebank et al., European Journal of Pharmacology, supra; T. Seyfried, Federation Proceedings, supra.
Compounds were tested for their effectiveness in preventing seizures in DBA/2 mice which have a unique sensitivity to auditory stimulation. Exposure to loud high-frequency sounds can trigger seizure activity in these animals. This sensitivity develops from postnatal day 12 and peaks around day 21 and slowly diminishes as the animals mature. The unusual response to auditory stimulation in this strain of mouse is believed to be due to a combination of early myelination (causing an unusually low excitatory threshold) and delayed development of inhibitory mechanisms.
Mice were injected intraperitoneally with the compound specified in Table I below or with vehicle control, 30 minutes prior to being placed in a bell jar and turning on the auditory stimulus (12 KHz sine wave at 110–120 db). Administered doses are specified in Table I as milligram of compound per kilogram bodyweight of mouse. The auditory stimulus was left on for 60 seconds and mice reactions were timed and recorded. Percentage inhibition was determined with reference to vehicle controls. All compounds were tested in HCl salt form.

[5] = dose 20 mg/kg intraperitoneally 30 minutes prior to auditory stimulus (12 KHz, 110–120 db)

C[C@]12N[C@H](Cc3ccccc31)c1ccccc12 [MK-801]
activity in mouse audiogenic tests [1]: good activity
results in in vivo models of stroke [2]: good results
toxicity [3]: has shown toxicity

Cl.N/C(=N\C(=O)c1cccs1)NCCc1ccccc1
melting point: 198 to 200 °C

CCOc1ccc(NC(=N)NCCCCc2ccccc2)cc1 [N-(4-ethoxyphenyl)-N′-(4-phenylbutyl)guanidine]
Audiogenic Response % Inhib. [4, 5]: 60%

COc1ccc(C(=O)/N=C(\N)NCCCCc2ccccc2)cc1.Cl [N-(4-methoxybenzoyl)-N′-(4-phenylbutyl)guanidine, hydrochloride]
Audiogenic Response % Inhib. [4, 5]: 42%
melting point: 172 to 174 °C

CCCCOc1ccc(NC(=N)NCCCCc2ccccc2)cc1 [N-(4-butoxyphenyl)-N′-(4-phenylbutyl)guanidine]
Audiogenic Response % Inhib. [4, 5]: 97%

CCCCOc1ccc(C(=O)/N=C(\N)NCCc2c[nH]c3ccccc23)cc1.Cl
melting point: 158 to 162 °C

COc1ccc(NC(=N)Nc2ccc(C(C)C)cc2)cc1 [N-(4-methoxyphenyl)-N′-(4-isopropylphenyl)guanidine]
Audiogenic Response % Inhib. [4, 5]: 56%

Cc1ccc(C(=O)/N=C(\N)Nc2ccc(C(C)C)cc2)cc1.Cl [N-(4-methylbenzoyl)-N′-(4-isopropylphenyl)guanidine, hydrochloride]
Audiogenic Response % Inhib. [4, 5]: 30%

Cc1ccc(C(=O)/N=C(\N)NCCCCc2ccccc2)cc1.Cl [N-(4-methylbenzoyl)-N′-(4-phenylbutyl)guanidine, hydrochloride]
Audiogenic Response % Inhib. ([4]; dose 10 mg/kg intraperitoneally 30 minutes prior to auditory stimulus (12 KHz, 110–120 db)): 16%
Audiogenic Response % Inhib. [4, 5]: 75%
